# Patent EP0620225B1, “Cephalosporin derivatives” (Basilea Pharmaceutica AG, priority 1993, dated 1994)
# Legend:
# E.faecalis [1] = test: In vitro activity against selected species (MIC50, MIC90, range); type: cell-based; settings: Enterococcus faecalis, medium MHA; for MIC: MIC range
# Protocol: (§1) In vitro activity was determined by minimum inhibitory concentration in a microorganism spectum by the agar dilution method in Mueller Hinton agar.
# S.aureus MRSA = test: as above; type: cell-based; settings: Staphylococcus aureus, medium MHA (Mueller Hinton Agar) +NaCl; for MIC: MIC range
# Protocol: as §1
# Escherichia coli 25922 = test: Efficacy against systemic infections (septicemia) in mice; type: in vivo; settings: 96 h, survival day 4
# Protocol: (§2) Septicemia was induced in outbred Swiss albino mice (Jbm MoRo [specific pathogen free]; weight 16 to 20 g, Biomedical Research Laboratories, Füllinsdorf, Switzerland). Mice were infected by intraperitoneal injection of diluted overnight cultures of the test organisms. Bacterial challenge doses were 4-10 times the number of organisms required to kill 50% of untreated animals within 48 h. The test compounds were administered p.o. or s.c. 1 and 3 h after the bacterial challenge. To treat the infection with Pseudomonas aeruginosa BA an additional dose was given 5 h after challenge. Control and treatment groups at each dose were composed of five mice each. The 50% effective dose (ED50, in milligrams per kilogram) was calculated by probit analysis as described by Finney (Finney, D.J. 1978, Statistical method in biological assay, 3rd ed. Charles Griffin & Co., Ltd., London), from the survival rates on day 4 after infection.
# S.aureus Smith = test: as above; type: in vivo; settings: Staphylococcus aureus, 96 h, sc 1 and 3 h after challenge, survival day 4
# Protocol: as §2
# S.aureus MSSA = test: In vitro activity against selected species (MIC50, MIC90, range); type: cell-based; settings: Staphylococcus aureus, medium MHB (Mueller Hinton Broth); for MIC: MIC range
# E.faecalis 6 = test: Antibacterial spectrum (MIC), agar dilution; type: cell-based; settings: Enterococcus faecalis, read-out: MIC
# Protocol: as §1
# M.catarrhalis RA21 = test: Antibacterial spectrum (MIC), agar dilution; type: cell-based; settings: Moraxella catarrhalis, read-out: MIC
# Protocol: as §1
# Acinetobacter sp.51-156 = test: Antibacterial spectrum (MIC), agar dilution; type: cell-based; settings: SP.51156, read-out: MIC
# Protocol: as §1
# H.influenzae 1 = test: Antibacterial spectrum (MIC), agar dilution; type: cell-based; settings: Haemophilus influenzae, read-out: MIC
# Protocol: as §1
# E.cloacae 908SSi = test: Antibacterial spectrum (MIC), agar dilution; type: cell-based; settings: Enterobacter cloacae, read-out: MIC
# Protocol: as §1
# P.mirabilis 2117 = test: Antibacterial spectrum (MIC), agar dilution; type: cell-based; settings: Proteus mirabilis, read-out: MIC
# Protocol: as §1
# L.monocytogenes BK23 = test: Antibacterial spectrum (MIC), agar dilution; type: cell-based; settings: Listeria monocytogenes, read-out: MIC
# Protocol: as §1
# S.agalactiae QK44 = test: Antibacterial spectrum (MIC), agar dilution; type: cell-based; settings: Streptococcus agalactiae, read-out: MIC
# Protocol: as §1
# S.aureus 734 MRSA = test: Antibacterial spectrum (MIC), agar dilution; type: cell-based; settings: Staphylococcus aureus, read-out: MIC
# Protocol: as §1
# S.marcescens 69438 = test: Antibacterial spectrum (MIC), agar dilution; type: cell-based; settings: Serratia marcescens, read-out: MIC
# Protocol: as §1
# P.aeruginosa 27853 = test: Antibacterial spectrum (MIC), agar dilution; type: cell-based; settings: Pseudomonas aeruginosa, read-out: MIC
# Protocol: as §1
# S.viridans group 016 = test: Antibacterial spectrum (MIC), agar dilution; type: cell-based; settings: Streptococcus viridans, read-out: MIC
# Protocol: as §1
# X.maltophilia 1AC739 = test: Antibacterial spectrum (MIC), agar dilution; type: cell-based; settings: Stenotrophomonas maltophilia, read-out: MIC
# Protocol: as §1
# E.coli 25922 = test: Antibacterial spectrum (MIC), agar dilution; type: cell-based; settings: Escherichia coli, read-out: MIC
# Protocol: as §1
# P.vulgaris 1028 = test: Antibacterial spectrum (MIC), agar dilution; type: cell-based; settings: Proteus vulgaris, read-out: MIC
# Protocol: as §1
# C.freundii 43 = test: Antibacterial spectrum (MIC), agar dilution; type: cell-based; settings: Citrobacter freundii, read-out: MIC
# Protocol: as §1
# C.freundii 902 = test: Antibacterial spectrum (MIC), agar dilution; type: cell-based; settings: Citrobacter freundii, read-out: MIC
# Protocol: as §1
# S.pyogenes B15 = test: Antibacterial spectrum (MIC), agar dilution; type: cell-based; settings: Streptococcus pyogenes, read-out: MIC
# Protocol: as §1
# S.pneumoniae Q19 = test: Antibacterial spectrum (MIC), agar dilution; type: cell-based; settings: Streptococcus pneumoniae, read-out: MIC
# Protocol: as §1
# S.aureus 6538 = test: Antibacterial spectrum (MIC), agar dilution; type: cell-based; settings: Staphylococcus aureus, read-out: MIC
# Protocol: as §1
# M.morganii 6H-137 = test: Antibacterial spectrum (MIC), agar dilution; type: cell-based; settings: Morganella morganii, 6H137, read-out: MIC
# Protocol: as §1
# E.cloacae 908R = test: Antibacterial spectrum (MIC), agar dilution; type: cell-based; settings: Enterobacter cloacae, read-out: MIC
# Protocol: as §1
# K.pneumoniae 418 = test: Antibacterial spectrum (MIC), agar dilution; type: cell-based; settings: Klebsiella pneumoniae, read-out: MIC
# Protocol: as §1
# N.meningitidis 69480 = test: Antibacterial spectrum (MIC), agar dilution; type: cell-based; settings: Neisseria meningitidis, read-out: MIC
# Protocol: as §1
# S.pneumoniae PEN-R = test: In vitro activity against selected species (MIC50, MIC90, range); type: cell-based; settings: Streptococcus pneumoniae; for MIC: MIC range
# E.faecium = test: In vitro activity against selected species (MIC50, range); type: cell-based; settings: Enterococcus faecium, medium MHA; for MIC: MIC range
# Protocol: as §1
# M.catarrhalis = test: In vitro activity against selected species (MIC50, MIC90, range); type: cell-based; settings: Moraxella catarrhalis, medium IsoB
# E.faecalis [2] = test: as above; type: cell-based; settings: Enterococcus faecalis, medium IsoB
# S.viridans group = test: as above; type: cell-based; settings: Streptococcus viridans
# [3] = Escherichia coli, E.coli 25922, sc 1 and 3 h after challenge
# [4] = medium IsoB (Isosensitest Broth)
smiles,measurement,setting,value
"Nc1nc(/C(=N/O)C(=O)N[C@@H]2C(=O)N3C(C(=O)O)=C(/C=C4\CCN(CCF)C4=O)CS[C@H]23)cs1 [F, [6R-[3(E),6α,7β(Z)]]-7-[[(2-Amino-4-thiazolyl)(hydroxyimino)-acetyl]amino] -3-[[1-(2-fluoroethyl)-2-oxo-3-pyrrolidinylidene]methyl] -8-oxo-5-this-1-azabicyclo[4.2.0]-oct-2-ene-2-carboxylic acid]",MIC,E.faecalis [1],0.5 to 2 µg/mL
same,MIC50,E.faecalis [1],1 µg/mL
same,MIC90,E.faecalis [1],2 µg/mL
same,MIC,S.aureus MRSA,8 to 16 µg/mL
same,MIC50,S.aureus MRSA,8 µg/mL
same,MIC90,S.aureus MRSA,8 µg/mL
same,ED50,Escherichia coli 25922; [3],< 0.1 mg/kg
same,ED50,S.aureus Smith,< 1 mg/kg
same,MIC,S.aureus MSSA,0.5 to 1 µg/mL
same,MIC50,S.aureus MSSA,0.5 µg/mL
same,MIC90,S.aureus MSSA,1 µg/mL
same,MIC,E.faecalis 6,1 µg/mL
same,MIC,M.catarrhalis RA21,8 µg/mL
same,MIC,Acinetobacter sp.51-156,16 µg/mL
same,MIC,H.influenzae 1,0.12 µg/mL
same,MIC,E.cloacae 908SSi,0.12 µg/mL
same,MIC,P.mirabilis 2117,≤ 0.06 µg/mL
same,MIC,L.monocytogenes BK23,2 µg/mL
same,MIC,S.agalactiae QK44,0.12 µg/mL
same,MIC,S.aureus 734 MRSA,8 µg/mL
same,MIC,S.marcescens 69438,0.5 µg/mL
same,MIC,P.aeruginosa 27853,32 µg/mL
same,MIC,S.viridans group 016,0.5 µg/mL
same,MIC,X.maltophilia 1AC739,> 32 µg/mL
same,MIC,E.coli 25922,≤ 0.06 µg/mL
same,MIC,P.vulgaris 1028,2 µg/mL
same,MIC,C.freundii 43,4 µg/mL
same,MIC,C.freundii 902,0.12 µg/mL
same,MIC,S.pyogenes B15,≤ 0.06 µg/mL
same,MIC,S.pneumoniae Q19,≤ 0.06 µg/mL
same,MIC,S.aureus 6538,0.5 µg/mL
same,MIC,M.morganii 6H-137,≤ 0.06 µg/mL
same,MIC,E.cloacae 908R,16 µg/mL
same,MIC,K.pneumoniae 418,≤ 0.06 µg/mL
same,MIC,N.meningitidis 69480,≤ 0.06 µg/mL
same,MIC,S.pneumoniae PEN-R; medium IsoB + 20% serum,0.12 to 0.5 µg/mL
same,MIC50,S.pneumoniae PEN-R; medium IsoB + 20% serum,0.5 µg/mL
same,MIC,E.faecium,1 to 16 µg/mL
same,MIC50,E.faecium,2 µg/mL
COc1ccc(N2CC/C(=C\C3=C(C(=O)O)N4C(=O)[C@@H](NC(=O)/C(=N\O)c5csc(N)n5)[C@H]4SC3)C2=O)cc1 [I],MIC,M.catarrhalis; MIC range,1 to 64 µg/mL
same,MIC50,M.catarrhalis,8 µg/mL
same,MIC90,M.catarrhalis,16 µg/mL
same,MIC,E.faecalis [1],0.5 to 1 µg/mL
same,MIC50,E.faecalis [1],≤ 0.5 µg/mL
same,MIC90,E.faecalis [1],1 µg/mL
same,MIC,S.aureus MRSA,16 to 32 µg/mL
same,MIC50,S.aureus MRSA,16 µg/mL
same,MIC90,S.aureus MRSA,32 µg/mL
same,ED50,"Escherichia coli 25922; Escherichia coli 25922, po (orally) 1 and 3 h after challenge",4.5 mg/kg
same,ED50,Escherichia coli 25922; [3],< 0.3 mg/kg
same,ED50,S.aureus Smith,< 1 mg/kg
same,MIC,E.faecalis [2]; MIC range,0.25 to 1 µg/mL
same,MIC50,E.faecalis [2],0.5 µg/mL
same,MIC90,E.faecalis [2],1 µg/mL
same,MIC,S.aureus MSSA,0.5 to 1 µg/mL
same,MIC50,S.aureus MSSA,0.5 µg/mL
same,MIC90,S.aureus MSSA,0.5 µg/mL
same,MIC,E.faecalis 6,0.25 µg/mL
same,MIC,M.catarrhalis RA21,> 16 µg/mL
same,MIC,Acinetobacter sp.51-156,32 µg/mL
same,MIC,H.influenzae 1,0.25 µg/mL
same,MIC,E.cloacae 908SSi,0.5 µg/mL
same,MIC,P.mirabilis 2117,0.12 µg/mL
same,MIC,L.monocytogenes BK23,2 µg/mL
same,MIC,S.agalactiae QK44,0.25 µg/mL
same,MIC,S.aureus 734 MRSA,8 µg/mL
same,MIC,S.marcescens 69438,1 µg/mL
same,MIC,P.aeruginosa 27853,> 32 µg/mL
same,MIC,S.viridans group 016,0.5 µg/mL
same,MIC,X.maltophilia 1AC739,> 32 µg/mL
same,MIC,E.coli 25922,0.12 µg/mL
same,MIC,P.vulgaris 1028,2 µg/mL
same,MIC,C.freundii 43,8 µg/mL
same,MIC,C.freundii 902,0.25 µg/mL
same,MIC,S.pyogenes B15,≤ 0.06 µg/mL
same,MIC,S.pneumoniae Q19,≤ 0.06 µg/mL
same,MIC,S.aureus 6538,0.5 µg/mL
same,MIC,M.morganii 6H-137,≤ 0.06 µg/mL
same,MIC,E.cloacae 908R,32 µg/mL
same,MIC,K.pneumoniae 418,0.12 µg/mL
same,MIC,N.meningitidis 69480,≤ 0.06 µg/mL
same,MIC50,S.viridans group,0.5 µg/mL
same,MIC90,S.viridans group,2 µg/mL
same,MIC,S.viridans group; MIC range,0.12 to 4 µg/mL
same,MIC,S.pneumoniae PEN-R; [4],0.12 to 0.25 µg/mL
same,MIC,S.pneumoniae PEN-R; medium IsoB + 20% serum,0.12 to 0.5 µg/mL
same,MIC50,S.pneumoniae PEN-R; [4],≤ 0.12 µg/mL
same,MIC90,S.pneumoniae PEN-R; [4],≤ 0.12 µg/mL
same,MIC50,S.pneumoniae PEN-R; medium IsoB + 20% serum,0.25 µg/mL
same,MIC,E.faecium,0.1 to 16 µg/mL
same,MIC50,E.faecium,2 µg/mL
